Values quoted from earlier work as cited in patent US12433839B2, “Sustained release particle formulations” (Adare Pharmaceuticals USA, Inc., priority 2011, dated 2025).

Settings: in vivo

- typical plasma half-life: about one
SMILES: COc1ccccc1OCC(O)CO (stereo not shown) [guaifenesin]
